# Measurements as given in US20090068290A1, “BIFEPRUNOX DOSES FOR TREATING SCHIZOPHRENIA” (priority 2006, published 2009).
# Experiments:
# Assay type in all cases: in vivo, human
# [1] = system: adult subjects with schizophrenia; assay: PANSS responder rates, Clinical Study One; conditions: Risperidone 6 mg; ITT
# Protocol: There were five treatment groups in this study. […] Study medication was administered once daily. After Baseline measurements were performed, the titration phase was begun. Bifeprunox treated subjects were titrated up to 5 mg, 10 mg or 20 mg according to a standardized titration schedule (Day 1: 0.125 mg, Day 2: 0.25 mg, Day 3: 0.5 mg, Day 4: 1.0 mg, Day 5: 2.0 mg, Day 6: 5.0 mg, Day 7: 10.0 mg, Day 8: 20 mg). When the assigned dose was reached, subjects were maintained at that dose for the remainder of the six-week treatment period.
# [2] = system: adult subjects with schizophrenia; assay: Adverse events (TEAE, SAE, discontinuation, EPS-related TEAE, anticholinergic use), Clinical Study One
# Protocol: METHODOLOGY: This was a randomized, double-blind, fixed-dose, placebo-controlled, risperidone-referenced, parallel group, multi-center study in adult subjects with schizophrenia. There were five treatment groups in this study. […] Study medication was administered once daily. After Baseline measurements were performed, the titration phase was begun. Bifeprunox treated subjects were titrated up to 5 mg, 10 mg or 20 mg according to a standardized titration schedule (Day 1: 0.125 mg, Day 2: 0.25 mg, Day 3: 0.5 mg, Day 4: 1.0 mg, Day 5: 2.0 mg, Day 6: 5.0 mg, Day 7: 10.0 mg, Day 8: 20 mg).
# [3] = system: adult subjects with schizophrenia; assay: CGI Improvement score, Clinical Study Three; conditions: 15 mg, LOCF
# Protocol: CLINICAL STUDY THREE: Table 29 below presents frequencies for the seven categories of CGI Improvement ratings by visit using LOCF for the ITT population. Statistical differences among treatment groups regarding the mean CGI Improvement score were evaluated using a CMH test stratified by pooled center applied to the frequencies of the seven CGI Improvement categories with modified ridit scores. […] The treatment comparison of the 30 mg bifeprunox group versus placebo group was not notable (p=0.162). No notable differences were observed between the placebo group and either of the two bifeprunox dose groups at any other time point during the study (Week 1 through Week 4).
smiles,measurement,setting,value
"Cc1nc2n(c(=O)c1CCN1CCC(c3noc4cc(F)ccc34)CC1)CCCC2 [Risperidone, risperidone, reference compound]","PANSS Responder at Endpoint (LOCF), 20% Definition",[1],46 (40) n (%)
same,"PANSS Responder at Endpoint (LOCF), 25% Definition",[1],34 (29) n (%)
same,"PANSS Responder at Endpoint (LOCF), 30% Definition",[1],26 (22) n (%)
same,"PANSS Responder at Endpoint (LOCF), 35% Definition",[1],15 (13) n (%)
same,"TEAE Akathisia, %","[2]; 6 mg, Safety Population",(5%)
same,"TEAE Muscle Spasms, %","[2]; 6 mg, Safety Population",(2%)
same,"TEAE Musculoskeletal Stiffness, %","[2]; 6 mg, Safety Population",(<1%)
same,"TEAE Myalgia, %","[2]; 6 mg, Safety Population",(2%)
same,"TEAE NERVOUS SYSTEM DISORDERS, %","[2]; 6 mg, Safety Population",(49%)
same,"TEAE Neck Pain, %","[2]; 6 mg, Safety Population",(2%)
same,"TEAE Neck Stiffness, %","[2]; 6 mg, Safety Population",(<1%)
same,"TEAE Pain in Jaw, %","[2]; 6 mg, Safety Population",(<1%)
same,"TEAE Pain in Limb, %","[2]; 6 mg, Safety Population",(2%)
same,"Affect Lability, %",[2]; Risperidone 6 mg,(<1%)
same,"Agitation, %",[2]; Risperidone 6 mg,(8%)
same,"Alcoholic Hangover, %",[2]; Risperidone 6 mg,(<1%)
same,"Anxiety Aggravated, %",[2]; Risperidone 6 mg,(3%)
same,"Anxiety, %",[2]; Risperidone 6 mg,(6%)
same,"DIZZINESS, %",[2]; Risperidone 6 mg,(5%)
same,"DYSARTHRIA, %",[2]; Risperidone 6 mg,(2%)
same,"Disturbance in Attention, %",[2]; Risperidone 6 mg,(<1%)
same,"Drooling, %",[2]; Risperidone 6 mg,(2%)
same,"Dystonia, %",[2]; Risperidone 6 mg,(4%)
same,"EXTRAPYRAMIDAL DISORDER, %",[2]; Risperidone 6 mg,(3%)
same,"Gait Feastinating, %",[2]; Risperidone 6 mg,(<1%)
same,"Headache Nos, %",[2]; Risperidone 6 mg,(28%)
same,"Hypoaesthesia, %",[2]; Risperidone 6 mg,(<1%)
same,"Migraine Aggravated, %",[2]; Risperidone 6 mg,(<1%)
same,"Oculogyric Crisis, %",[2]; Risperidone 6 mg,(<1%)
same,"PARAESTHESIA, %",[2]; Risperidone 6 mg,(<1%)
same,"PSYCHIATRIC DISORDERS, %",[2]; Risperidone 6 mg,(39%)
same,"SEDATION, %",[2]; Risperidone 6 mg,(13%)
same,"SOMNOLENCE, %",[2]; Risperidone 6 mg,(22%)
same,"TREMOR, %",[2]; Risperidone 6 mg,(<1%)
same,incidence of aggravated schizophrenia NOS (SAE),[2]; Risperidone 6 mg,4%
same,subjects with at least one AE that led to discontinuation,[2]; Risperidone 6 mg,14%
same,subjects with at least one SAE,[2]; Risperidone 6 mg,16%
same,subjects with at least one TEAE,[2]; Risperidone 6 mg,89%
same,suicide attempt,[2]; Risperidone 6 mg,no subjects
"Cc1cc2c(s1)Nc1ccccc1N=C2N1CCN(C)CC1 [Olanzapine, olanzapine, reference compound]","CGI Improvement Minimally Improved, %",[3]; Week 2,(45%)
same,"CGI Improvement Minimally Worse, %",[3]; Week 2,(6%)
same,"CGI Improvement Much Improved, %",[3]; Week 2,(27%)
same,"CGI Improvement Much Worse, %",[3]; Week 2,(<1%)
same,"CGI Improvement No Change, %",[3]; Week 2,(18%)
same,"CGI Improvement Very Much Improved, %",[3]; Week 2,(4%)
same,"CGI Improvement Minimally Improved, %",[3]; Week 4,(29%)
same,"CGI Improvement Minimally Worse, %",[3]; Week 4,(7%)
same,"CGI Improvement Much Improved, %",[3]; Week 4,(36%)
same,"CGI Improvement Much Worse, %",[3]; Week 4,(3%)
same,"CGI Improvement No Change, %",[3]; Week 4,(17%)
same,"CGI Improvement Very Much Improved, %",[3]; Week 4,(7%)
same,"CGI Improvement Minimally Improved, %",[3]; Week 6/Endpoint,(29%)
same,"CGI Improvement Minimally Worse, %",[3]; Week 6/Endpoint,(7%)
same,"CGI Improvement Much Improved, %",[3]; Week 6/Endpoint,(34%)
same,"CGI Improvement Much Worse, %",[3]; Week 6/Endpoint,(3%)
same,"CGI Improvement No Change, %",[3]; Week 6/Endpoint,(14%)
same,"CGI Improvement Very Much Improved, %",[3]; Week 6/Endpoint,(12%)
